Patent US11345694B2, “Antibacterial compounds” (DISCUVA LTD., priority 2017, dated 2022)
Converted amounts (≈) assume the structure as drawn.

Tests used:
[1] = system: Staphylococcus aureus ATCC 35556 (SA); experiment: MIC broth microdilution; assay type: cell-based; conditions: for MIC: ATCC35556
Summary of the method: (§1)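 Planktonic cells were tested by CLSI broth microdilution in cation-adjusted Müller-Hinton broth, with compounds two-fold serially diluted to final concentrations of 0.39-200 μM (DMSO at most 2% final). After 20-24 h at 37° C in ambient air, MIC was taken as the lowest concentration inhibiting growth.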

[2] = system: Salmonella typhimurium XNAA5 (St); experiment: MIC broth microdilution; assay type: cell-based
Summary of the method: as §1

[3] = system: Pseudomonas aeruginosa ATCC 33359 (PA); experiment: MIC broth microdilution; assay type: cell-based; conditions: for MIC: ATCC33359
Summary of the method: as §1

[4] = system: Serratia marcescens SL1344 (Sm); experiment: MIC broth microdilution; assay type: cell-based
Summary of the method: as §1

[5] = system: Escherichia coli K12 (EC); experiment: MIC broth microdilution; assay type: cell-based
Summary of the method: as §1

[6] = system: Acinetobacter baumannii ATCC 17978 (AB); experiment: MIC broth microdilution; assay type: cell-based; conditions: for MIC: ATCC17978
Summary of the method: as §1

[7] = system: E. coli NCTC 13441 (UPEC); experiment: MIC broth microdilution; assay type: cell-based, Escherichia coli; conditions: for MIC: Escherichia coli, NCTC13441
Summary of the method: as §1

[8] = system: K. pneumoniae H154680676 (KP5); experiment: MIC broth microdilution; assay type: cell-based, Klebsiella pneumoniae; conditions: Klebsiella pneumoniae
Summary of the method: (§2)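 Growth inhibition scored after 20-24 h at 37 °C in ambient air, in cation-adjusted Müller-Hinton broth; MIC is the lowest inhibitory concentration. Compounds serially diluted two-fold over 0.39-200 μM final (DMSO up to 2%), per CLSI microdilution guidelines.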

[9] = system: K. pneumoniae H154640784 (KP7); experiment: MIC broth microdilution; assay type: cell-based, Klebsiella pneumoniae; conditions: Klebsiella pneumoniae
Summary of the method: as §2

[10] = system: K. pneumoniae H151440671 (KP10); experiment: MIC broth microdilution; assay type: cell-based, Klebsiella pneumoniae; conditions: Klebsiella pneumoniae
Summary of the method: as §2

[11] = system: K. pneumoniae H154300688 (KP9); experiment: MIC broth microdilution; assay type: cell-based, Klebsiella pneumoniae; conditions: Klebsiella pneumoniae
Summary of the method: as §2

[12] = system: K. pneumoniae ATCC 700603 (KP3); experiment: MIC broth microdilution; assay type: cell-based, Klebsiella pneumoniae; conditions: Klebsiella pneumoniae, ATCC700603
Summary of the method: as §2

[13] = system: K. pneumoniae H154020667 (KP6); experiment: MIC broth microdilution; assay type: cell-based, Klebsiella pneumoniae; conditions: Klebsiella pneumoniae
Summary of the method: as §2

[14] = system: K. pneumoniae H154600588 (KP8); experiment: MIC broth microdilution; assay type: cell-based, Klebsiella pneumoniae; conditions: Klebsiella pneumoniae
Summary of the method: as §2

[15] = system: K. pneumoniae NCTC 13438 (KP1); experiment: MIC broth microdilution; assay type: cell-based, Klebsiella pneumoniae; conditions: Klebsiella pneumoniae, NCTC13438
Summary of the method: as §2

[16] = system: Klebsiella pneumoniae ATCC 10031 (KP2); experiment: MIC broth microdilution; assay type: cell-based; conditions: ATCC10031
Summary of the method: as §2

[17] = system: human hepatocarcinoma cell line ATCC HB-8065 (HepG2); experiment: Human cell viability (CellTiter-Glo); assay type: cell-based; conditions: Homo sapiens; HepG2 cells, 24 h incubation, CellTiter-Glo luminescence, 0.2-100 μM; read-out: IC50 values against the HepG2 cell line
Summary of the method: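 HepG2 cells were seeded at 20,000 cells/well in MEM with 10% FBS and, after 24 h, exposed for 24 h at 37° C. to two-fold dilutions (final 0.2-100 μM) in MEM with 1% FBS and 1% DMSO. Viability was read by CellTiter-Glo luminescence, with IC50 from a 4-parameter logistic fit.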

[18] = system: Klebsiella pneumoniae ATCC 51504 (KP4); experiment: MIC broth microdilution; assay type: cell-based; conditions: ATCC51504
Summary of the method: as §1

SMILES | MIC [8] [µM] | MIC [9] [µM] | MIC [10] [µM] | MIC [11] [µM] | MIC [12] [µM] | MIC [13] [µM] | MIC [14] [µM] | MIC [15] [µM] | MIC [1] [µM] | MIC [16] [µM] | MIC [3] [µM] | MIC [5] [µM] | MIC [6] [µM] | IC50 [17] [µM] | MIC [7] [µM] | MIC [18] [µM] | other results
O=C(O)c1cn(C2CC2)c2cc(N3CCNCC3)c(F)cc2c1=O [CIP] |  |  |  |  |  |  |  |  |  |  |  |  |  |  |  |  | MIC SA [1]: B (a MIC of from 1 to 10 is assigned the letter B); MIC St [2]: A (an MIC (μM) of less or equal to 1 is assigned the letter A); MIC PA [3]: B (a MIC of from 1 to 10 is assigned the letter B); MIC Sm [4]: A (an MIC (μM) of less or equal to 1 is assigned the letter A); MIC EC [5]: A (an MIC (μM) of less or equal to 1 is assigned the letter A); MIC AB [6]: A (an MIC (μM) of less or equal to 1 is assigned the letter A); MIC UPEC [7]: D (a MIC of over 100 is assigned the letter D)
Cc1cc(-c2[nH]c(N)nc2-c2ccc3c(c2)OCO3)ccn1 [Example 26, 4-(Benzo[d][1,3]dioxol-5-yl)-5-(2-methylpyridin-4-yl)-1H-imidazol-2-amine] | 1 to 10 (≈ 0.294 to 2.94 µg/mL) | 10 to 100 (≈ 2.94 to 29.4 µg/mL) | 1 to 10 (≈ 0.294 to 2.94 µg/mL) | 1 to 10 (≈ 0.294 to 2.94 µg/mL) | 10 to 100 (≈ 2.94 to 29.4 µg/mL) | 1 to 10 (≈ 0.294 to 2.94 µg/mL) | 10 to 100 (≈ 2.94 to 29.4 µg/mL) | 10 to 100 (≈ 2.94 to 29.4 µg/mL) | > 100 | ≤ 1 | > 100 | ≤ 1 | > 100 | > 100 | 1 to 10 (≈ 0.294 to 2.94 µg/mL) |  | 
Nc1cc(-c2[nH]c(N)nc2-c2ccc3c(c2)OCCO3)ccn1 [Example 24, 4-(2-Amino-4-(2,3-dihydrobenzo[b][1,4]dioxin-6-yl)-1H-imidazol-5-yl)pyridin-2-amine] | 1 to 10 (≈ 0.309 to 3.09 µg/mL) | 10 to 100 (≈ 3.09 to 30.9 µg/mL) | 1 to 10 (≈ 0.309 to 3.09 µg/mL) | 10 to 100 (≈ 3.09 to 30.9 µg/mL) | 10 to 100 (≈ 3.09 to 30.9 µg/mL) | 1 to 10 (≈ 0.309 to 3.09 µg/mL) | 10 to 100 (≈ 3.09 to 30.9 µg/mL) | 10 to 100 (≈ 3.09 to 30.9 µg/mL) | > 100 | ≤ 1 | > 100 | 1 to 10 (≈ 0.309 to 3.09 µg/mL) | > 100 | > 100 | 1 to 10 (≈ 0.309 to 3.09 µg/mL) |  | 
Cc1cc(-c2[nH]c(C)nc2-c2ccc3c(c2)OCCO3)ccn1 [Example 84, 4-(4-(2,3-Dihydrobenzo[b][1,4]dioxin-6-yl)-2-methyl-1H-imidazol-5-yl)-2-methylpyridine] | 1 to 10 (≈ 0.307 to 3.07 µg/mL) | 10 to 100 (≈ 3.07 to 30.7 µg/mL) | 1 to 10 (≈ 0.307 to 3.07 µg/mL) | 10 to 100 (≈ 3.07 to 30.7 µg/mL) | 10 to 100 (≈ 3.07 to 30.7 µg/mL) | 1 to 10 (≈ 0.307 to 3.07 µg/mL) | 10 to 100 (≈ 3.07 to 30.7 µg/mL) | 10 to 100 (≈ 3.07 to 30.7 µg/mL) | > 100 | ≤ 1 | > 100 | 1 to 10 (≈ 0.307 to 3.07 µg/mL) | > 100 | > 100 | 1 to 10 (≈ 0.307 to 3.07 µg/mL) |  | 

Second part, led by results:

MIC [8] [µM] | MIC [9] [µM] | MIC [10] [µM] | MIC [11] [µM] | MIC [12] [µM] | MIC [13] [µM] | MIC [14] [µM] | MIC [15] [µM] | MIC [1] [µM] | MIC [16] [µM] | MIC [3] [µM] | MIC [5] [µM] | MIC [6] [µM] | IC50 [17] [µM] | MIC [7] [µM] | MIC [18] [µM] | SMILES | other results
≤ 1 | 1 to 10 (≈ 0.335 to 3.35 µg/mL) | ≤ 1 | 1 to 10 (≈ 0.335 to 3.35 µg/mL) | 1 to 10 (≈ 0.335 to 3.35 µg/mL) | ≤ 1 | 1 to 10 (≈ 0.335 to 3.35 µg/mL) | 1 to 10 (≈ 0.335 to 3.35 µg/mL) | > 100 | ≤ 1 | > 100 | ≤ 1 | > 100 | > 100 | 1 to 10 (≈ 0.335 to 3.35 µg/mL) | ≤ 1 | CCN1CCOc2ccc(-c3nc(N)[nH]c3-c3ccnc(C)c3)cc21 [Example 57, 4-(4-Ethyl-3,4-dihydro-2H-benzo[b][1,4]oxazin-6-yl)-5-(2-methylpyridin-4-yl)-1H-imidazol-2-amine] | 
≤ 1 | 1 to 10 (≈ 0.347 to 3.47 µg/mL) | ≤ 1 | ≤ 1 | 1 to 10 (≈ 0.347 to 3.47 µg/mL) | ≤ 1 | 1 to 10 (≈ 0.347 to 3.47 µg/mL) | 1 to 10 (≈ 0.347 to 3.47 µg/mL) | > 100 | ≤ 1 | > 100 | ≤ 1 | > 100 | > 100 | 1 to 10 (≈ 0.347 to 3.47 µg/mL) | ≤ 1 | Cc1cc(-c2[nH]c(N)nc2-c2ccc3c(c2)N(C2CC2)CCO3)ccn1 [Example 65, 4-(4-Cyclopropyl-3,4-dihydro-2H-benzo[b][1,4]oxazin-6-yl)-5-(2-methylpyridin-4-yl)-1H-imidazol-2-amine] | 
